Measured values: patent US20150225404A1, “PYRIDINE DERIVATIVE AND MEDICINE” (NIPPON SHINYAKU CO., LTD., priority 2012, published 2015)
Counter-ions that a name gives are not always drawn. Like-named read-outs stand apart in the source and are kept apart here.

Key:
male Slc:ICR mice = test: Action against pain-related behavior and micturition cycle in mice with cyclophosphamide (CP)-induced acute cystitis; type: in vivo; settings: Mus musculus, iv, 0.25 h, CP 300 mg/kg i.p., test substance 3 mg/kg intravenously 3 hours after CP, 15 minutes observation
Protocol: An action of a test substance against visceral pain and frequent urination associated with cystitis, which was induced by intraperitoneal administration (20 mL/kg) of CP (300 mg/kg) to 4 to 5-week-old male Slc:ICR mice (available from Japan SLC, Inc.), was investigated. This experiment was performed according to a method described in European Journal of Pharmacology, 676 (2012), pp. 75-80.
Three hours after the administration of CP, a test substance (1 mg/kg or 3 mg/kg) was intravenously administered, and observation by visual inspection and video recording were performed for 15 minutes immediately thereafter. In the observation by visual inspection, four pain-related behaviors (eye opening, rounded back, leg dragging, and behavior during urination) were scored, each rated on a scale of 0-10, according to the following criteria.
Eye opening (normal: 0 point, sometimes closed or half-open eyes: 5 points, completely closed: 10 points)
Rounded back (normal: 0 point, sometimes crouched: 5 points, crouched at almost all times: 10 points)
Leg dragging (normal: 0 point, leg dragging: 10 points)
Behavior during urination (normal: 0 point, shaking hip in micturition: 10 points)
In addition, the video was played back, and the frequency of licking behavior around the abdomen as a pain-related behavior was scored, rated on a scale of 0-10, according to the following criteria.
Licking behavior around the abdomen (0 to 3 times: 0 point, 4 times to 10 times: 5 points, 11 times or more: 10 points)
Furthermore, the video was played back, and the frequency of urination (urination marks) on a filter paper was counted and taken as an index for micturition cycle.
An average value of the pain-related behavior score of each group (total score of the five items: 50 points at maximum) and an average value of the frequency of urination (urination marks) on the filter paper were determined.
The strength of an analgesic action of the test substance against the CP-induced visceral pain was evaluated in terms of percent inhibition (%) of pain-related behavior score which is calculated as {(A−B)/A×100}, wherein A is an average value of the pain-related behavior score of a medium-administered group, and B is an average value of the pain-related behavior score of a test substance-administered group.
In addition, the strength of a frequent urination inhibitory action of the test substance against the CP-induced frequent urination was evaluated in terms of percent inhibition (%) of the frequency of urination which is calculated as {(C−D)/C×100}, wherein C is an average value of the frequency of urination of a medium-administered group, and D is an average value of the frequency of urination of a test substance-administered group.

human mGluR5 = biological target: T1, human mGluR5 (Homo sapiens, UniProt P41594); test: Experiment for receptor function of mGluR5 (Ca2+-dependent fluorescence, FLIPR, CHO-K1 cells stably expressing human mGluR5); type: cell-based; settings: L-glutamic acid 10 μM, Fluo-4 fluorescence
T1 construct: expressed in transfected cells
T1 sequence (P41594 21-1212): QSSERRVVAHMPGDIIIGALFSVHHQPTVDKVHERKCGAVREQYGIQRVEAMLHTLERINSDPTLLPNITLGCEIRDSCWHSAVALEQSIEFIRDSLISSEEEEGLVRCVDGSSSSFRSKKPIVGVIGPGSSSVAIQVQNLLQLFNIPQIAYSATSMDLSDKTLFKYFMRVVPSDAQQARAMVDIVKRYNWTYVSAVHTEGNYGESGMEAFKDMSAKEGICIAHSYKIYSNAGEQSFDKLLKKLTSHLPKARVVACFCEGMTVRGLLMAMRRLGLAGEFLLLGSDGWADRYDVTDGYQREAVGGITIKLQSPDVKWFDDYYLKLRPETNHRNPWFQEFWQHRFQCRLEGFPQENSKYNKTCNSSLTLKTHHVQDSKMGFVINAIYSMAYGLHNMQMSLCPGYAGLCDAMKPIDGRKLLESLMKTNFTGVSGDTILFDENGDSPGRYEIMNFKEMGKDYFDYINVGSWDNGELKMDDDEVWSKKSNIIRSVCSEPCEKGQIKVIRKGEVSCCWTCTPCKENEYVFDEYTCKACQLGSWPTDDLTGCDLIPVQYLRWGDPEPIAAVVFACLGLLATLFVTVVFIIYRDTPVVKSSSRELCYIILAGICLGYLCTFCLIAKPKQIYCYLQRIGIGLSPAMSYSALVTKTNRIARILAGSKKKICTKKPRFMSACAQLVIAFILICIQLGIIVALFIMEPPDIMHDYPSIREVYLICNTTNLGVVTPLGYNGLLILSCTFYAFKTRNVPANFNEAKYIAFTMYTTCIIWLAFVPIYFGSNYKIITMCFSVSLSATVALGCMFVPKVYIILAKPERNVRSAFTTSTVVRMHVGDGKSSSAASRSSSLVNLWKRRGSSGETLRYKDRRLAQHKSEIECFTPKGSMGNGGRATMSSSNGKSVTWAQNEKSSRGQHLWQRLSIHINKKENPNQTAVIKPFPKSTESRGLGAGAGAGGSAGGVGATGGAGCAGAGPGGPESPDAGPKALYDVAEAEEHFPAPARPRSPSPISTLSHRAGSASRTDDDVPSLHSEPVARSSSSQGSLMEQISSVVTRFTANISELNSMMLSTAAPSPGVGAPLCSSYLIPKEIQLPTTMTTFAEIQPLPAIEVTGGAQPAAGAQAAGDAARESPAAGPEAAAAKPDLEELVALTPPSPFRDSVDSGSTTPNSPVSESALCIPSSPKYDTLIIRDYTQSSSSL
Procedure, shortened: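 Fluo-4-loaded CHO-K1 cells pre-incubated 2 min with test substance, then stimulated with L-glutamic acid (final 10 μM) in HBSS, pH 7.4. FLIPR Ca2+ fluorescence normalized to glutamate alone (100%) and glutamate with 10 μM MPEP (0%); IC50 estimated by logistic fit.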

[1] = read-out: Percent inhibition of pain-related behavior score (%)
[2] = read-out: Percent inhibition of the frequency of urination (%)

SMILES	inhibition in vivo at 3 mg/kg (male Slc:ICR mice; [1]) [%]	inhibition in vivo at 3 mg/kg (male Slc:ICR mice; [2]) [%]	IC50 (human mGluR5) [nM]
Cc1ncc(-c2cc(OCc3ccccn3)nc3c2CCC3)cn1 [Example 36, 4-(2-Methylpyrimidin-5-yl)-2-(pyridin-2-ylmethoxy)-6,7-dihydro-5H-cyclopenta[b]pyridine hydrochloride]	40.4	31.3	71
Cc1cccc(COc2cc(-c3cnc(C)nc3)c3c(n2)CCC3)n1 [Example 45, 2-[(6-Methylpyridin-2-yl)methoxy]-4-(2-methylpyrimidin-5-yl)-6,7-dihydro-5H-cyclopenta[b]pyridine hydrochloride]	34.1	33.8	
Fc1ccc(F)c(COc2cc(-c3cncnc3)c3c(n2)CCCC3)n1 [Example 148, 2-[(3,6-Difluoropyridin-2-yl)methoxy]-4-(pyrimidin-5-yl)-5,6,7,8-tetrahydroquinoline]	45.7	31.5	22
c1ccc(COc2cc(-c3cncnc3)c3c(n2)CCCC3)nc1 [Example 143, 2-(Pyridin-2-ylmethoxy)-4-(pyrimidin-5-yl)-5,6,7,8-tetrahydroquinoline hydrochloride]	52.2	47.7	38
Cc1ncc(-c2cc(OCc3nc(F)ccc3F)nc3c2CCC3)cn1 [Example 43, 2-[(3,6-Difluoropyridin-2-yl)methoxy]-4-(2-methylpyrimidin-5-yl)-6,7-dihydro-5H-cyclopenta[b]pyridine]	31	41.9	
Fc1ccc(F)c(COc2cc(-c3cncnc3)c3c(n2)CCC3)n1 [Example 255, 2-[(3,6-Difluoropyridin-2-yl)methoxy]-4-(pyrimidin-5-yl)-6,7-dihydro-5H-cyclopenta[b]pyridine]	31	26.4	
CN(C)c1cncc(-c2cc(OCc3ccccn3)nc3c2CCCC3)c1 [Example 126, N,N-Dimethyl-5-[2-(pyridin-2-ylmethoxy)-5,6,7,8-tetrahydroquinolin-4-yl]pyridin-3-amine]			99.8
Nc1cnc(-c2cc(OCc3ccccn3)nc3c2CCCC3)cn1 [Example 207, 5-[2-(Pyridin-2-ylmethoxy)-5,6,7,8-tetrahydroquinolin-4-yl]pyrazin-2-amine]			346
Cc1ncc(-c2cc(OCc3nc(C#N)co3)nc3c2CCC3)cn1 [Example 267, 2-({[4-(2-Methylpyrimidin-5-yl)-6,7-dihydro-5H-cyclopenta[b]pyridin-2-yl]oxy}methyl)-1,3-oxazole-4-carbonitrile]			55
N#Cc1ccc(-c2cc(OCc3ccccn3)nc3c2CCC3)cn1 [Example 4, 5-[2-(Pyridin-2-ylmethoxy)-6,7-dihydro-5H-cyclopenta[b]pyridin-4-yl]pyridine-2-carbonitrile hydrochloride]			147
Cc1ncc(-c2cc(OCc3ccc(C#N)cc3)nc3c2CCC3)cn1 [Example 261, 4-({[4-(2-Methylpyrimidin-5-yl)-6,7-dihydro-5H-cyclopenta[b]pyridin-2-yl]oxy}methyl)benzonitrile]			64
Fc1cnccc1COc1cc(-c2cncnc2)c2c(n1)CCC2 [Example 32, 2-[(3-Fluoropyridin-4-yl)methoxy]-4-(pyrimidin-5-yl)-6,7-dihydro-5H-cyclopenta[b]pyridine]			31
COCc1cccc(COc2cc(-c3cncnc3)c3c(n2)CCCC3)n1 [Example 160, 2-{[6-(Methoxymethyl)pyridin-2-yl]methoxy}-4-(pyrimidin-5-yl)-5,6,7,8-tetrahydroquinoline hydrochloride]			152
CC(=O)c1cncc(-c2cc(OCc3ccccn3)nc3c2CCCC3)c1 [Example 115, 1-{5-[2-(Pyridin-2-ylmethoxy)-5,6,7,8-tetrahydroquinolin-4-yl]pyridin-3-yl}ethanone dihydrochloride]			98.7
Cc1cncc(-c2cc(OCc3ccccn3)nc3c2CCCC3)n1 [Example 201, 4-(6-Methylpyrazin-2-yl)-2-(pyridin-2-ylmethoxy)-5,6,7,8-tetrahydroquinoline]			36.2
Cc1nc(COc2cc(-c3cccnc3)c3c(n2)CCCC3)cs1 [Example 96, 2-[(2-Methyl-1,3-thiazol-4-yl)methoxy]-4-(pyridin-3-yl)-5,6,7,8-tetrahydroquinoline]			56.3
N#Cc1cccc(COc2cc(-c3cncnc3)c3c(n2)CCCC3)c1 [Example 279, 3-({[4-(Pyrimidin-5-yl)-5,6,7,8-tetrahydroquinolin-2-yl]oxy}methyl)benzonitrile]			108
OCc1cncc(-c2cc(OCc3ncccc3F)nc3c2CCCC3)n1 [Example 217, (6-{2-[(3-Fluoropyridin-2-yl)methoxy]-5,6,7,8-tetrahydroquinolin-4-yl}pyrazin-2-yl)methanol]	38.3	40.4	
N#Cc1cccc(COc2cc(-c3ccnc(F)c3)c3c(n2)CCC3)c1 [Example 251, 3-({[4-(2-Fluoropyridin-4-yl)-6,7-dihydro-5H-cyclopenta[b]pyridin-2-yl]oxy}methyl)benzonitrile]			94.3
Fc1cccc(COc2cc(-c3cncnc3)c3c(n2)CCCC3)c1 [Example 281, 2-[(3-Fluorobenzyl)oxy]-4-(pyrimidin-5-yl)-5,6,7,8-tetrahydroquinoline]			94
N#Cc1ccc(COc2cc(-c3cccnn3)c3c(n2)CCC3)nc1 [Example 275, 6-({[4-(Pyridazin-3-yl)-6,7-dihydro-5H-cyclopenta[b]pyridin-2-yl]oxy}methyl)pyridine-3-carbonitrile]			82
N#Cc1cccc(COc2cc(-c3cncc(CO)c3)c3c(n2)CCC3)c1 [Example 253, 3-[({4-[5-(Hydroxymethyl)pyridin-3-yl]-6,7-dihydro-5H-cyclopenta[b]pyridin-2-yl}oxy)methyl]benzonitrile]			80
Fc1ccc(COc2cc(-c3cncnc3)c3c(n2)CCCC3)cc1 [Example 280, 2-[(4-Fluorobenzyl)oxy]-4-(pyrimidin-5-yl)-5,6,7,8-tetrahydroquinoline]			92
C=Cc1cccc(COc2cc(-c3cncnc3)c3c(n2)CCCC3)n1 [Example 161, 2-[(6-Ethenylpyridin-2-yl)methoxy]-4-(pyrimidin-5-yl)-5,6,7,8-tetrahydroquinoline]			359
OCc1cncc(-c2cc(OCc3cccc(F)c3)nc3c2CCC3)c1 [Example 249, (5-{2-[(3-Fluorobenzyl)oxy]-6,7-dihydro-5H-cyclopenta[b]pyridin-4-yl}pyridin-3-yl)methanol]			53
CN(C)C(=O)c1cncc(-c2cc(OCc3ccccn3)nc3c2CCCC3)c1 [Example 120, N,N-Dimethyl-5-[2-(pyridin-2-ylmethoxy)-5,6,7,8-tetrahydroquinolin-4-yl]pyridine-3-carboxamide hydrochloride]			206
Fc1ccc(COc2cc(-c3cncnc3)c3c(n2)CCC3)c(F)c1 [Example 18, 2-[(2,4-Difluorobenzyl)oxy]-4-(pyrimidin-5-yl)-6,7-dihydro-5H-cyclopenta[b]pyridine]			105
Clc1ccc(COc2cc(-c3cncnc3)c3c(n2)CCC3)s1 [Example 35, 2-[(5-Chlorothiophen-2-yl)methoxy]-4-(pyrimidin-5-yl)-6,7-dihydro-5H-cyclopenta[b]pyridine]			58
Clc1cnc(-c2cc(OCc3ccccn3)nc3c2CCCC3)cn1 [Example 196, 4-(5-Chloropyrazin-2-yl)-2-(pyridin-2-ylmethoxy)-5,6,7,8-tetrahydroquinoline hydrochloride]			170
Cc1cccc(COc2cc(-c3cncnc3)c3c(n2)CCC3)n1 [Example 28, 2-[(6-Methylpyridin-2-yl)methoxy]-4-(pyrimidin-5-yl)-6,7-dihydro-5H-cyclopenta[b]pyridine]			104
